Assay results published in patent US20260248936A1, “NOVEL LINKER COMPOUND AND LIGAND-DRUG CONJUGATE THEREFOR” (priority 2022, published 2026).
Numbered stars: 1 amine (or outer) side, 2 acyl side, 3 side chain; on linkers, the order of the positions; unused ones are H or OH. Square brackets hold non-standard residues; d marks the D form. Peptide text beside a SMILES is read from it. * marks the point of attachment. ξ: configuration not given here. X2 = C#CCC(OC(=O)*)c1ccc(O[C@@H]2O[C@H](CO)[C@H](O)[C@H](O)[C@H]2O)c2cc(C(=O)O)oc12; X3 = C#CCC(OC(=O)*)c1ccc(O[C@@H]2O[C@H](CO)[C@H](O)[C@H](O)[C@H]2O)c2cc(C(=O)O)sc12; X1 = O=C(O)CCc1cc2c(O[C@@H]3O[C@H](CO)[C@H](O)[C@H](O)[C@H]3O)ccc(COC(=O)*)c2s1; Dil(5ξ) = CCC(C)[C@@H]([C@@H](CC(=O)[*:2])OC)N(C)[*:1]; Dolaproine = CO[C@@H]([C@@H]1CCCN1)[C@@H](C)C(=O)O; NMeV = CN[C@H](C(=O)O)C(C)C; ξF = NC(Cc1ccccc1)C(=O)O

What was measured:
[1] = Mouse plasma stability; format: in vitro ADME; details: Method 1 (mouse plasma), 37° C., read-out: Plasma stability t1/2
Description: Method 1: Mouse Plasma Stability
(§1) The compounds of the present invention (A-5, A-9, A-14, A-19, A-35, A-36) and MPS, used as a standard substance, were each dissolved in DMSO and a PBS buffer solution to a concentration of 30 mM, and then mixed in mouse plasma (Biochemed, 029-APSC-PMG) to a final concentration of 300 μM (final 1.0% DMSO) and 600 μM of the compounds and MPS, respectively. The reaction of the mixed solution in plasma was initiated in a constant temperature incubator at 37° C. Before the reaction and on certain days after the reaction, the above samples were aliquoted in an amount of 100 μL, and 200 μL of acetonitrile (ACN, Sigma, SA-271004-1L) was added to terminate the reaction, mixed, and then vortexed for about 1 minute, and then centrifuged (Beckman, B30150) at 4° C. for 15 minutes at 14,000 rpm to precipitate plasma proteins. Each supernatant obtained by centrifugation was collected and quantitatively analyzed using the HPLC method.
(§2) The results of measuring the plasma half-life of the compounds of the present invention using Methods 1 to 4 above are shown in Table 3.

[2] = Rat plasma stability; format: in vitro ADME; details: Method 3 (rat plasma), 37° C., read-out: Plasma stability t1/2
Description: Method 3: Rat Plasma Stability
as §1, with “(A-19,” for “(A-5, A-9, A-14, A-19, A-35,”, “rat” for “mouse”, “031-APSC-PMG)” for “029-APSC-PMG)”, “ACN” for “acetonitrile (ACN, Sigma, SA-271004-1L)”, “centrifuged” for “centrifuged (Beckman, B30150)”
as §2

[3] = Beagle dog plasma stability; format: in vitro ADME; details: Method 4 (beagle dog plasma), 37° C., read-out: Plasma stability t1/2
Description: Method 4: Beagle Dog Plasma Stability
as §1, with “(A-19,” for “(A-5, A-9, A-14, A-19, A-35,”, “beagle dog” for “mouse”, “014-APSC-PMG)” for “029-APSC-PMG)”, “ACN” for “acetonitrile (ACN, Sigma, SA-271004-1L)”, “centrifuged” for “centrifuged (Beckman, B30150)”
as §2

[4] = Human plasma stability; format: in vitro ADME; details: Method 2 (human plasma), 37° C., read-out: Plasma stability t1/2
Description: Method 2: Human Plasma Stability
as §1, with “(A-8,” for “(A-5,”, “human” for “mouse”, “752PR—SC-PMG)” for “029-APSC-PMG)”, “ACN” for “acetonitrile (ACN, Sigma, SA-271004-1L)”, “centrifuged” for “centrifuged (Beckman, B30150)”
as §2

[5] = Chemical stability in PBS buffer solution (pH 7.4); format: physicochemical; details: PBS buffer solution pH 7.4, 37° C., HPLC; read-out: Chemical stability t1/2
Description: The compounds of the present invention (A-5, A-8, A-9, A-11, A-12, A-14, A-15, A-16, A-19, A-23, A-24, A-35 and A-36) were each dissolved in DMSO to a concentration of 10 mM and then mixed with a PBS buffer solution (pH 7.4) to prepare as a solution having a concentration of 500 μM (5% DMSO). MPS, used as a standard substance, was also prepared as a solution having a concentration of 500 μM in a PBS buffer solution. 420 μL of a PBS buffer solution and 140 μL of each of 500 μM compounds of the present invention and MPS were mixed to prepare a total of 700 μL of reaction solution. The reaction of the mixed solution was initiated in a constant temperature incubator at 37° C. The reaction solution was aliquoted in an amount of 70 μL at 0 minutes before the reaction and at certain times after the reaction, and the remaining compounds of the present invention or MPS or the liberated MMAF were quantitatively analyzed using the HPLC method. […] In addition, the remaining amount of Compound A-19 in a PBS buffer solution (pH 7.4) according to the incubation time is shown in FIG. 4.

| SMILES | half-life at 300 µM [1] [days] | half-life at 300 µM [2] [days] | half-life at 300 µM [3] [days] | half-life at 300 µM [4] [days] | half-life at 100 µM [5] [days] |
| --- | --- | --- | --- | --- | --- |
| C#CCC(OC(=O)N(C)[C@H](C(=O)N[C@H](C(=O)N(C)[C@@H](C(C)CC)[C@@H](CC(=O)N1CCC[C@H]1[C@H](OC)[C@@H](C)C(=O)N[C@H](C)[C@@H](O)c1ccccc1)OC)C(C)C)C(C)C)c1ccc(O[C@@H]2O[C@H](C(=O)O)[C@H](O)[C@H](O)[C@H]2O)c2cc(CCC(=O)O)[se]c12 (some centres unmarked) [Compound A-36] | > 7 | > 7 | > 7 | > 7 | > 7 |
| C#CCC(OC(=O)N(C)[C@H](C(=O)N[C@H](C(=O)N(C)[C@@H](C(C)CC)[C@@H](CC(=O)N1CCC[C@H]1[C@H](OC)[C@@H](C)C(=O)NC(Cc1ccccc1)C(=O)O)OC)C(C)C)C(C)C)c1ccc(O[C@@H]2O[C@H](CO)[C@H](O)[C@H](O)[C@H]2O)c2cc(C(=O)O)sc12 (some centres unmarked) [Compound A-11] (X3-[NMeV]V[Dil(5ξ)][Dolaproine][ξF]-OH) |  |  |  |  | > 7 |
| C#CCC(OC(=O)N(C)[C@H](C(=O)N[C@H](C(=O)N(C)[C@@H](C(C)CC)[C@@H](CC(=O)N1CCC[C@H]1[C@H](OC)[C@@H](C)C(=O)NC(Cc1ccccc1)C(=O)O)OC)C(C)C)C(C)C)c1ccc(O[C@@H]2O[C@H](CO)[C@H](O)[C@H](O)[C@H]2O)c2cc(CCC(=O)O)sc12 (some centres unmarked) [Compound A-12] |  |  |  |  | > 7 |
| CCC(C)[C@@H]([C@@H](CC(=O)N1CCC[C@H]1[C@H](OC)[C@@H](C)C(=O)NC(Cc1ccccc1)C(=O)O)OC)N(C)C(=O)[C@@H](NC(=O)[C@H](C(C)C)N(C)C(=O)OCc1cc2c(O[C@@H]3O[C@H](CO)[C@H](O)[C@H](O)[C@H]3O)ccc(COC(=O)N(C)[C@H](C(=O)N[C@H](C(=O)N(C)[C@@H](C(C)CC)[C@@H](CC(=O)N3CCC[C@H]3[C@H](OC)[C@@H](C)C(=O)NC(Cc3ccccc3)C(=O)O)OC)C(C)C)C(C)C)c2o1)C(C)C (some centres unmarked) [Compound A-24] |  |  |  |  | > 7 |
| C#CCC(OC(=O)N(C)[C@H](C(=O)N[C@H](C(=O)N(C)[C@@H](C(C)CC)[C@@H](CC(=O)N1CCC[C@H]1[C@H](OC)[C@@H](C)C(=O)NC(Cc1ccccc1)C(=O)O)OC)C(C)C)C(C)C)c1ccc(O[C@@H]2O[C@H](CO)[C@H](O)[C@H](O)[C@H]2O)c2cc(CCCC(=O)O)oc12 (some centres unmarked) [Compound A-16] |  |  |  |  | > 7 |
| C#CCC(OC(=O)N(C)[C@H](C(=O)N[C@H](C(=O)N(C)[C@@H](C(C)CC)[C@@H](CC(=O)N1CCC[C@H]1[C@H](OC)[C@@H](C)C(=O)NC(Cc1ccccc1)C(=O)O)OC)C(C)C)C(C)C)c1ccc(O[C@@H]2O[C@H](CO)[C@H](O)[C@H](O)[C@H]2O)c2cc(COC(=O)N(C)[C@H](C(=O)N[C@H](C(=O)N(C)[C@@H](C(C)CC)[C@@H](CC(=O)N3CCC[C@H]3[C@H](OC)[C@@H](C)C(=O)NC(Cc3ccccc3)C(=O)O)OC)C(C)C)C(C)C)oc12 (some centres unmarked) [Compound A-35] | > 7 |  |  | > 7 | > 7 |
| C#CCC(OC(=O)N(C)[C@H](C(=O)N[C@H](C(=O)N(C)[C@@H](C(C)CC)[C@@H](CC(=O)N1CCC[C@H]1[C@H](OC)[C@@H](C)C(=O)NC(Cc1ccccc1)C(=O)O)OC)C(C)C)C(C)C)c1ccc(O[C@@H]2O[C@H](CO)[C@H](O)[C@H](O)[C@H]2O)c2cc(C(=O)O)oc12 (some centres unmarked) [Compound A-15] (X2-[NMeV]V[Dil(5ξ)][Dolaproine][ξF]-OH) |  |  |  |  | > 7 |
| CCC(C)[C@@H]([C@@H](CC(=O)N1CCC[C@H]1[C@H](OC)[C@@H](C)C(=O)NC(Cc1ccccc1)C(=O)O)OC)N(C)C(=O)[C@@H](NC(=O)[C@H](C(C)C)N(C)C(=O)OCc1ccc(O[C@@H]2O[C@H](CO)[C@H](O)[C@H](O)[C@H]2O)c2cc(CCC(=O)O)sc12)C(C)C (some centres unmarked) [Compound A-5] (X1-[NMeV]V[Dil(5ξ)][Dolaproine][ξF]-OH) | > 7 |  |  |  | > 7 |
| CCC(C)[C@@H]([C@@H](CC(=O)N1CCC[C@H]1[C@H](OC)[C@@H](C)C(=O)NC(Cc1ccccc1)C(=O)O)OC)N(C)C(=O)[C@@H](NC(=O)[C@H](C(C)C)N(C)C(=O)OCc1ccc(O[C@@H]2O[C@H](CO)[C@H](O)[C@H](O)[C@H]2O)c2cc(Cn3cc(COCCOCCOCCOC)nn3)sc12)C(C)C (some centres unmarked) [Compound A-8] |  |  |  | > 7 | > 7 |
